SMILES strings stand for the structures.

The record followed here is patent US7700602B2, “Amino-5,5-diphenylimidazolone derivatives for the inhibition of β-secretase” (Wyeth LLC, priority 2004, dated 2010).

Data set [1] has as its target human BACE1 (Homo sapiens, UniProt P56817). Kind of data set: Fluorescent kinetic assay, inhibition of BACE1 (WABC-6 peptide substrate).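 Further: fluorescence monitored at 320 nm excitation and 420 nm emission every 40 s over 30 min, with the substrate cleavage rate taken from the linear slope.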 The data set is classed as biochemical. Conditions: 10 nM enzyme, 25 μM substrate WABC-6, pH 4.5, room temperature; read-out: IC50 (μM) BACE1.
In data set [2] the target is T1, human BACE2 (Homo sapiens, UniProt Q9Y5Z0).
T1 sequence (Q9Y5Z0 63-518): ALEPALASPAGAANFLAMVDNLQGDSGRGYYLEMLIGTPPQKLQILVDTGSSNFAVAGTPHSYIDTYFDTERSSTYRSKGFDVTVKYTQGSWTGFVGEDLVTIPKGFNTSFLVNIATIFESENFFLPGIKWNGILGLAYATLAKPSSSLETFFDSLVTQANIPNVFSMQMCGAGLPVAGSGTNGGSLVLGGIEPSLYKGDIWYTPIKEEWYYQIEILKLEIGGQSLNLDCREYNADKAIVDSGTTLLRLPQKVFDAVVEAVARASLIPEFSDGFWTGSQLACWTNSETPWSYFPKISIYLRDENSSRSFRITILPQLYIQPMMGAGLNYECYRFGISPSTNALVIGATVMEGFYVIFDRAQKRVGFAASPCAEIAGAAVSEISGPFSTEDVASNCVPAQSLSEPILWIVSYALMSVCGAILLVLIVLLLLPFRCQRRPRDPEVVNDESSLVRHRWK
As to the kind of experiment: Fluorescent Kinetic Assay for Human Recombinant BACE 2 (selectivity BACE1/BACE2).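 Further: cleavage rate from the linear slope of fluorescence (excitation 320 nm, emission 420 nm) recorded every 40 s over 30 min at room temperature, sodium acetate buffer with 0.05% CHAPS.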 The data set is classed as biochemical. Conditions: selectivity BACE1 over BACE2; 1.5 nM human BACE2, 25 μM substrate, pH 4.5.

Chain of human BACE1 (P56817 46-501): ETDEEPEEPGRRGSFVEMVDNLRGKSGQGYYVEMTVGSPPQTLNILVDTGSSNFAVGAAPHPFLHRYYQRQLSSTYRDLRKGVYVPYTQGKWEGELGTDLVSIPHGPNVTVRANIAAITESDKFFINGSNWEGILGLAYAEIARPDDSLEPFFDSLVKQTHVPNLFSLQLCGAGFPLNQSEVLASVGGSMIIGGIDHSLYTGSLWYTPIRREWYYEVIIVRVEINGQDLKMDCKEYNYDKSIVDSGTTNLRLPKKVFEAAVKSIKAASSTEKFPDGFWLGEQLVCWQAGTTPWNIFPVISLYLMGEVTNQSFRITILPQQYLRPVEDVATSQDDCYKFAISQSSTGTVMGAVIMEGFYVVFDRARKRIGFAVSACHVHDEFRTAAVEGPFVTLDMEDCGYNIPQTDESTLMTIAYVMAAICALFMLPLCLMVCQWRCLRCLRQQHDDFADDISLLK

Take `CCOc1ccc(C2(c3ccc(F)c(-c4cncnc4)c3)N=C(N)N(C)C2=O)cc1OCC` (stereo not drawn) [Example 86]: the melting point lay in the range of 95 to 98 °C. The IC50 in data set [1] fell in the range of 0.01 to 0.1 µM. The BACE1/BACE2 selectivity result in data set [2] is “I (I = >100-fold selectivity)”.

In the case of `CN1C(=O)C(c2ccc(SC(F)(F)F)cc2)(c2ccc(F)c(-c3cccnc3F)c2)N=C1N` (stereo not drawn) [Example 93], the melting point turned out to be 95 °C. Also, in data set [1], the IC50 was in the range of 0.01 to 0.1 µM. In addition, the BACE1/BACE2 selectivity entry in data set [2] is reported as “II (II = 10-100-fold selectivity)”.

Molecule `CN1C(=O)C(c2ccc(SC(F)(F)F)cc2)(c2ccc(F)c(-c3cncnc3)c2)N=C1N` (stereo not drawn) [Example 94] gave a melting point of 183 °C. In addition, the IC50 in data set [1] was in the range of 0.11 to 1 µM. Further, the BACE1/BACE2 selectivity entry in data set [2] is recorded as “II (II = 10-100-fold selectivity)”.

Molecule `CN1C(=O)C(c2ccc(OC(F)F)cc2)(c2ccc(F)c(-c3cccnc3)c2)N=C1N` (stereo not drawn) [Example 95] showed a melting point of 104 to 106 °C. Besides, the IC50 in data set [1] lay in the range of 0.01 to 0.1 µM. The BACE1/BACE2 selectivity entry in data set [2] was “II (II = 10-100-fold selectivity)”.

Regarding `CN1C(=O)C(c2ccc(OC(F)F)cc2)(c2ccc(F)c(-c3cccnc3F)c2)N=C1N` (stereo not drawn) [Example 96], the melting point fell in the range of 108 to 110 °C. Further, the IC50 in data set [1] was 0.01 to 0.1 µM. For the same molecule, in data set [2], the BACE1/BACE2 selectivity result is “II (II = 10-100-fold selectivity)”.

Regarding `CN1C(=O)C(c2ccc(OC(F)F)cc2)(c2ccc(F)c(-c3cncnc3)c2)N=C1N` (stereo not drawn) [Example 97], the melting point lay within 103 to 105 °C. In data set [1], the IC50 lay within 0.01 to 0.1 µM. Also, in data set [2], the BACE1/BACE2 selectivity entry is reported as “II (II = 10-100-fold selectivity)”.

In turn, `CCOc1ccc(C2(c3ccc(F)c(-c4cccnc4)c3)N=C(N)N(C)C2=O)cc1OCC` (stereo not drawn) [Example 99] gave a melting point of 93 to 95 °C. Moreover, the IC50 in data set [1] fell in the range of 0.01 to 0.1 µM. Moreover, the BACE1/BACE2 selectivity entry in data set [2] is given as “III (III = <10-fold selectivity)”.

In turn, `CN1C(=O)C(c2ccc(OCCF)c(OCCF)c2)(c2ccc(F)c(-c3cccnc3F)c2)N=C1N` (stereo not drawn) [Example 104, 2-Amino-5-[3,4-bis-(2-fluoro-ethoxy)-phenyl]-5-[4-fluoro-3-(2-fluoro-pyridin-3-yl)-phenyl]-3-methyl-3,5-dihydro-imidazol-4-one] had a melting point of 85 to 95 °C. Moreover, the IC50 in data set [1] lay within 0.01 to 0.1 µM. Further, the BACE1/BACE2 selectivity result in data set [2] is “II (II = 10-100-fold selectivity)”.

In turn, `CN1C(=O)C(c2ccc(OCCF)cc2)(c2ccc(F)c(-c3cccnc3F)c2)N=C1N` (stereo not drawn) [Example 108, 2-Amino-5-[4-(2-fluoroethoxy)phenyl]-5-[4-fluoro-3-(2-fluoropyridin-3-yl)phenyl]-3-methyl-3,5-dihydro-4H-imidazol-4-one] returned a melting point of 135 °C. The IC50 in data set [1] lay in the range of 0.01 to 0.1 µM. For the same molecule, the BACE1/BACE2 selectivity result in data set [2] was “II (II = 10-100-fold selectivity)”.

`CN1C(=O)C(c2ccc(OCCF)cc2)(c2ccc(F)c(-c3cncnc3)c2)N=C1N` (stereo not drawn) [Example 109] displayed a melting point of 123 °C. Also, the IC50 in data set [1] lay within 0.01 to 0.1 µM. For the same molecule, in data set [2], the BACE1/BACE2 selectivity result is “II (II = 10-100-fold selectivity)”.

With `CN1C(=O)C(c2ccc(OCCF)cc2)(c2cccc(-c3ccc(F)nc3)c2)N=C1N` (stereo not drawn) [Example 111], the melting point was determined as 100 °C. For the same molecule, in data set [1], the IC50 was in the range of 0.11 to 1 µM. Further, in data set [2], the BACE1/BACE2 selectivity result is recorded as “III (III = <10-fold selectivity)”.

`Cc1cc(C2(c3ccc(F)c(-c4cccnc4F)c3)N=C(N)N(C)C2=O)ccc1OCCF` (stereo not drawn) [Example 112] came in with a melting point of 105 to 106 °C. For the same molecule, the IC50 in data set [1] lay in the range of 0.01 to 0.1 µM. Besides, the BACE1/BACE2 selectivity entry in data set [2] was “II (II = 10-100-fold selectivity)”.

For the molecule `Cc1cc(C2(c3ccc(F)c(-c4cncnc4)c3)N=C(N)N(C)C2=O)ccc1OCCF` (stereo not drawn) [Example 113], the melting point fell in the range of 108 to 110 °C. Further, the IC50 in data set [1] lay within 0.01 to 0.1 µM. For the same molecule, the BACE1/BACE2 selectivity entry in data set [2] is reported as “I (I = >100-fold selectivity)”.

Take `Cc1cc(C2(c3cccc(-c4cncnc4)c3)N=C(N)N(C)C2=O)ccc1OCc1ccccc1` (stereo not drawn) [Example 114]: the melting point was 107 to 109 °C. The IC50 in data set [1] is 0.01 to 0.1 µM. Also, the BACE1/BACE2 selectivity result in data set [2] was “II (II = 10-100-fold selectivity)”.

`Cc1cc(C2(c3cccc(-c4cncnc4)c3)N=C(N)N(C)C2=O)ccc1O` (stereo not drawn) [Example 115] displayed a melting point of 168 to 170 °C. Besides, the IC50 in data set [1] fell in the range of 0.01 to 0.1 µM. Moreover, the BACE1/BACE2 selectivity result in data set [2] was “II (II = 10-100-fold selectivity)”.

`Cc1cc(C2(c3cccc(-c4cncnc4)c3)N=C(N)N(C)C2=O)ccc1OCCF` (stereo not drawn) [Example 116] returned a melting point of 108 to 110 °C. The IC50 in data set [1] is 0.01 to 0.1 µM. In addition, the BACE1/BACE2 selectivity entry in data set [2] is “II (II = 10-100-fold selectivity)”.

`Cc1cc(C2(c3cccc(-c4cncnc4)c3)N=C(N)N(C)C2=O)ccc1OCC#N` (stereo not drawn) [Example 117] came in with a melting point of 220 to 222 °C. In addition, the half-inhibitory concentration (IC50) in data set [1] was 0.01 to 0.1 µM. Moreover, in data set [2], the BACE1/BACE2 selectivity entry is “II (II = 10-100-fold selectivity)”.

In turn, `Cc1cc(C2(c3cccc(-c4cncnc4)c3)N=C(N)N(C)C2=O)ccc1OC(C)C` (stereo not drawn) [Example 118] showed a melting point of 101 to 103 °C. For the same molecule, in data set [1], the IC50 lay within 0.01 to 0.1 µM. The BACE1/BACE2 selectivity result in data set [2] is listed as “I (I = >100-fold selectivity)”.

`CCOC(=O)COc1ccc(C2(c3cccc(-c4cncnc4)c3)N=C(N)N(C)C2=O)cc1C` (stereo not drawn) [Example 119] had a melting point of 105 to 107 °C. In data set [1], the IC50 lay in the range of 0.11 to 1 µM. In addition, the BACE1/BACE2 selectivity entry in data set [2] is “II (II = 10-100-fold selectivity)”.

Molecule `CCOc1ccc(C2(c3cccc(-c4cncnc4)c3)N=C(N)N(C)C2=O)cc1C` (stereo not drawn) [Example 120] had a melting point of 106 to 108 °C. The IC50 in data set [1] lay within 0.01 to 0.1 µM. Further, the BACE1/BACE2 selectivity result in data set [2] is “I (I = >100-fold selectivity)”.

For the molecule `CCCOc1ccc(C2(c3cccc(-c4cncnc4)c3)N=C(N)N(C)C2=O)cc1C` (stereo not drawn) [Example 121], the melting point lay in the range of 102 to 104 °C. Also, in data set [1], the 50% inhibitory concentration (IC50) lay in the range of 0.01 to 0.1 µM. In addition, the BACE1/BACE2 selectivity entry in data set [2] is listed as “II (II = 10-100-fold selectivity)”.

Molecule `Cc1cc(C2(c3cccc(-c4cncnc4)c3)N=C(N)N(C)C2=O)ccc1OCC(C)C` (stereo not drawn) [Example 122] had a melting point of 103 to 105 °C. In addition, the IC50 in data set [1] was in the range of 0.01 to 0.1 µM. The BACE1/BACE2 selectivity result in data set [2] is given as “II (II = 10-100-fold selectivity)”.

Molecule `Cc1cc(C2(c3cccc(-c4cncnc4)c3)N=C(N)N(C)C2=O)ccc1OCCCOc1ccccc1` (stereo not drawn) [Example 124] had a melting point of 72 to 74 °C. Besides, the 50% inhibitory concentration (IC50) in data set [1] was 0.01 to 0.1 µM. Moreover, the BACE1/BACE2 selectivity result in data set [2] is recorded as “II (II = 10-100-fold selectivity)”.

The molecule `CN1C(=S)C(c2ccc(OC(F)(F)F)cc2)(c2cccc(-c3cccnc3F)c2)N=C1N` (stereo not drawn) [Example 145, 2-Amino-5-[3-(2-fluoro-pyridin-3-yl)-phenyl]-3-methyl-5-(4-trifluoromethoxy-phenyl)-3,5-dihydro-imidazole-4-thione] showed a melting point of 89 to 99 °C. For the same molecule, in data set [1], the IC50 was 0.01 to 0.1 µM. For the same molecule, in data set [2], the BACE1/BACE2 selectivity result was “II (II = 10-100-fold selectivity)”.

What is called IC50 is the concentration needed to halve the response being measured. In general, melting point refers to the temperature of the solid-liquid transition.
